Results: the supplement of paper PMC10307832

How the values were obtained:
Test in all cases: relative viability (nuclei count vs DMSO), 5 days (fraction); higher = more cells survive
[1] = tested on: 201T
Outline: (§1)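 Cells from lung cancer lines were seeded into 1536-well plates and, one day later, dosed by pin tool. Treatments were either a single drug or a fixed dose of an anchor drug with five library-drug doses (not always all listed) in √10 steps. After 5 days, nuclei were stained in a one-step fixation (final 0.05% Triton X-100, 1% formaldehyde, 1 ug/ml Hoechst) and counted on 4× images, and relative viability is the treated-to-vehicle nuclei ratio, as the median of duplicate plates.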

[2] = tested on: NCI-H441
Outline: as §1

[3] = tested on: PC-14
Outline: as §1

[4] = tested on: NCI-H520
Outline: as §1

[5] = tested on: LOU-NH91
Outline: as §1

[6] = tested on: H3255
Outline: as §1

[7] = tested on: NCI-H647
Outline: as §1

[8] = tested on: NCI-H3122
Outline: as §1

[9] = tested on: NCI-H322M
Outline: as §1

[10] = tested on: NCI-H1793
Outline: as §1

[11] = tested on: EPLC-272H
Outline: as §1

[12] = tested on: COR-L23
Outline: as §1

[13] = tested on: UMC-11
Outline: as §1

[14] = tested on: NCI-H2405
Outline: as §1

[15] = tested on: NCI-H1650
Outline: as §1

[16] = tested on: HCC-15
Outline: as §1

[17] = tested on: NCI-H2170
Outline: as §1

[18] = tested on: NCI-H1734
Outline: as §1

[19] = tested on: NCI-H2023
Outline: as §1

[20] = tested on: NCI-H2347
Outline: as §1

In the case of `O=c1cc(N2CCOCC2)oc2c(-c3cccc4c3sc3ccccc34)cccc12` + CC1(C)CCC(c2ccc(Cl)cc2)=C(CN2CCN(c3ccc(C(=O)NS(=O)(=O)c4ccc(N[C@H](CCN5CCOCC5)CSc5ccccc5)c(S(=O)(=O)C(F)(F)F)c4)cc3)CC2)C1 [Navitoclax] (partner 0.5 µM), the relative viability ([1]; first compound 0.01 µM) is reported as 1.2, the relative viability ([1]; first compound 0.03162 µM) is reported as 1.17 and the relative viability ([1]; first compound 0.1 µM) is reported as 1.19. It also gave a relative viability ([1]; first compound 0.3162 µM) of 1.19, a relative viability ([1]; first compound 1 µM) of 1.18 and a relative viability ([2]; first compound 0.01 µM) of 0.53. It also gave a relative viability ([2]; first compound 0.03162 µM) of 0.787, a relative viability ([2]; first compound 0.1 µM) of 1.59 and a relative viability ([2]; first compound 0.3162 µM) of 0.738. The relative viability ([2]; first compound 1 µM) was 0.585, the relative viability ([3]; first compound 0.01 µM) was 1.09 and the relative viability ([3]; first compound 0.03162 µM) was 0.95. For the same compound, the relative viability ([3]; first compound 0.1 µM) was 1.08, the relative viability ([3]; first compound 0.3162 µM) was 1.07 and the relative viability ([3]; first compound 1 µM) was 1.03. It also gave a relative viability ([4]; first compound 0.01 µM) of 1.11, a relative viability ([4]; first compound 0.03162 µM) of 1.14 and a relative viability ([4]; first compound 0.1 µM) of 1.18. For the same compound, the relative viability ([4]; first compound 0.3162 µM) was 1.05, the relative viability ([4]; first compound 1 µM) was 1.22 and the relative viability ([5]; first compound 0.01 µM) was 0.637. The relative viability ([5]; first compound 0.03162 µM) was 0.631, the relative viability ([5]; first compound 0.1 µM) was 0.695 and the relative viability ([5]; first compound 0.3162 µM) was 0.747. The relative viability ([5]; first compound 1 µM) was 0.689, the relative viability ([6]; first compound 0.01 µM) was 0.557 and the relative viability ([6]; first compound 0.03162 µM) was 0.5. For the same compound, the relative viability ([6]; first compound 0.1 µM) was 0.555, the relative viability ([6]; first compound 0.3162 µM) was 0.54 and the relative viability ([6]; first compound 1 µM) was 0.527. The relative viability ([7]; first compound 0.01 µM) was 0.985, the relative viability ([7]; first compound 0.3162 µM) was 1.06 and the relative viability ([7]; first compound 1 µM) was 1.1. The relative viability ([8]; first compound 0.01 µM) was 1.02, the relative viability ([8]; first compound 0.03162 µM) was 0.981 and the relative viability ([8]; first compound 0.1 µM) was 1.02. For the same compound, the relative viability ([8]; first compound 0.3162 µM) was 0.966, the relative viability ([8]; first compound 1 µM) was 0.985 and the relative viability ([9]; first compound 0.01 µM) was 1.34. For the same compound, the relative viability ([9]; first compound 0.03162 µM) was 1.17, the relative viability ([9]; first compound 0.3162 µM) was 1.19 and the relative viability ([9]; first compound 1 µM) was 1.12. For the same compound, the relative viability ([10]; first compound 0.01 µM) was 0.471, the relative viability ([10]; first compound 0.03162 µM) was 0.468 and the relative viability ([10]; first compound 0.1 µM) was 0.54. For the same compound, the relative viability ([10]; first compound 0.3162 µM) was 0.367, the relative viability ([10]; first compound 1 µM) was 0.382 and the relative viability ([11]; first compound 0.01 µM) was 1.11. It also gave a relative viability ([11]; first compound 0.03162 µM) of 1.05, a relative viability ([11]; first compound 0.3162 µM) of 1.04 and a relative viability ([11]; first compound 1 µM) of 1.08. The relative viability ([12]; first compound 0.01 µM) was 1, the relative viability ([12]; first compound 0.03162 µM) was 1.02 and the relative viability ([12]; first compound 0.1 µM) was 0.976. It also gave a relative viability ([12]; first compound 0.3162 µM) of 1.05, a relative viability ([12]; first compound 1 µM) of 0.98 and a relative viability ([13]; first compound 0.01 µM) of 0.302. The relative viability ([13]; first compound 0.03162 µM) was 0.339, the relative viability ([13]; first compound 0.1 µM) was 0.255 and the relative viability ([13]; first compound 0.3162 µM) was 0.333. The relative viability ([13]; first compound 1 µM) was 0.343, the relative viability ([14]; first compound 0.01 µM) was 0.837 and the relative viability ([14]; first compound 0.03162 µM) was 1.01. For the same compound, the relative viability ([14]; first compound 0.1 µM) was 0.838, the relative viability ([14]; first compound 0.3162 µM) was 0.811 and the relative viability ([14]; first compound 1 µM) was 0.95. The relative viability ([15]; first compound 0.03162 µM) was 1.07, the relative viability ([15]; first compound 0.1 µM) was 1.07 and the relative viability ([15]; first compound 0.3162 µM) was 1.47. The relative viability ([15]; first compound 1 µM) was 1.07, the relative viability ([16]; first compound 0.01 µM) was 0.788 and the relative viability ([16]; first compound 0.03162 µM) was 0.706. For the same compound, the relative viability ([16]; first compound 0.1 µM) was 0.69, the relative viability ([16]; first compound 0.3162 µM) was 0.691 and the relative viability ([16]; first compound 1 µM) was 0.667. It also gave a relative viability ([17]; first compound 0.01 µM) of 0.69, a relative viability ([17]; first compound 0.03162 µM) of 0.741 and a relative viability ([17]; first compound 0.1 µM) of 0.599. It also gave a relative viability ([17]; first compound 0.3162 µM) of 0.62, a relative viability ([17]; first compound 1 µM) of 0.605 and a relative viability ([18]; first compound 0.01 µM) of 0.921. It also gave a relative viability ([18]; first compound 0.03162 µM) of 0.807, a relative viability ([18]; first compound 0.1 µM) of 0.835 and a relative viability ([18]; first compound 0.3162 µM) of 0.708. The relative viability ([18]; first compound 1 µM) was 0.851, the relative viability ([19]; first compound 0.01 µM) was 1.07 and the relative viability ([19]; first compound 0.03162 µM) was 0.912. The relative viability ([19]; first compound 0.1 µM) was 1, the relative viability ([19]; first compound 0.3162 µM) was 0.99 and the relative viability ([19]; first compound 1 µM) was 1.01. It also gave a relative viability ([20]; first compound 0.01 µM) of 1.11, a relative viability ([20]; first compound 0.03162 µM) of 0.804 and a relative viability ([20]; first compound 0.1 µM) of 0.844. The relative viability ([20]; first compound 0.3162 µM) was 0.754 and the relative viability ([20]; first compound 1 µM) was 0.897.
